According to ChEMBL document CHEMBL3301461, “MMV Malaria Box thermal shift screening” (2015):

tested on: Leishmania donovani; experiment: (§1) MMV: Thermal shift assay for identifying inhibitors; conditions: not given

ΔTm | SMILES
2.4 °C | COc1ccc(C(=O)NC(c2ccc(Cl)cc2Cl)c2cc(Cl)c3cccnc3c2O)cc1 (centres undefined)
4.8 °C | COc1cc(C(=O)Nc2ccc(-c3nc4ccccc4[nH]3)cc2)cc(OC)c1OC
2.4 °C | O=C(NC1CCN(Cc2ccccc2)CC1)c1cc(-c2cccnc2)nc2ccc(Cl)cc12

Second part, the compound before the results:

SMILES | ΔTm
Cc1cc(C)cc(Nc2cc(C)nc3nc(C(F)(F)F)nn23)c1 | 2.2 °C
CCOc1ccc(C2N(C)c3ccccc3N2C)cc1 | 2.5 °C
CCOc1cc2c(cc1OCC)C(c1cc(C)c(O)c(C)c1)NCC2 (centres undefined) | 3.3 °C
Cc1ccc(Nc2nc(N)c3ccccc3n2)cc1Cl | 4 °C

tested on: Plasmodium falciparum; experiment: as §1; conditions: 3D7

ΔTm | SMILES
2.2 °C | CC1CCN(Cc2ccc(NC(=O)c3cc4ccc5cccnc5c4[nH]3)cc2)CC1
2.9 °C | CCOc1cccc(C(=O)Nc2ccc(-c3nc4ccccc4[nH]3)cc2)c1
2.2 °C | O=C(Nc1ccccc1O)c1ccc(Oc2cccc(C(=O)Nc3ccccc3O)c2)cc1
2.2 °C | COc1ccc(-c2cc(=O)oc3c4c(ccc23)OCN(Cc2ccc(F)cc2)C4)cc1
2.3 °C | CC(C)(C)C(=O)Nc1ccc(C(=O)Nc2cccc(-c3nc4ccccc4[nH]3)c2)cc1
3 °C | O=C(NC1CCN(Cc2ccccc2)CC1)c1cc(-c2ccncc2)nc2ccc(Cl)cc12
2.6 °C | COc1cc(OC)cc(C(=O)Nc2ccc(-c3nc4ccccc4[nH]3)cc2)c1
3.7 °C | FC(F)(F)c1cccc(Nc2nc(-c3ccccc3)nc3ncccc23)c1
2.4 °C | COc1ccc(Nc2nc(NCc3ccccc3)c3ccccc3n2)cc1
2.5 °C | COc1cccc(C(=O)Nc2ccc(-c3nc4ccccc4[nH]3)cc2)c1
5.4 °C | COc1ccc(C=C2SC(=N)N(c3ccccc3OC)C2=O)cc1
2 °C | CCC(O)c1ccc(Br)cc1NC(=O)c1cccc(Cl)c1 (centres undefined)

The remaining lines, values behind:

SMILES | ΔTm
CCCN(CCC)CCCNC(=O)c1cc2c(-c3ccc(OC)c(OC)c3)nn(C)c2s1 | 2 °C
O=c1cc(NC2CCN(CCCc3ccccc3)CC2)c2cc(Cl)ccc2o1 | 3.1 °C
COc1cc2cc(C(=O)Nc3ccccc3)c(N)nc2cc1OC | 2.7 °C
Cc1ccc(NC(=O)Nc2cccc(Cl)c2)cc1F | 2.4 °C
CC1CCCCN1CCCNC(=O)c1ccc2c(c1)sc1nc(-c3ccc(F)cc3)cn12 (centres undefined) | 2.4 °C
CCN(Cc1ccccc1)C1CCN(Cc2cc(Br)ccc2O)CC1 | 12.4 °C
CCN(CC)CCNc1ncnc2c1[nH]c1ccc(Cl)cc12 | 2.3 °C
COc1cccc(Nc2nc(NCCO)c3ccccc3n2)c1 | 2 °C
O=C(Nc1ccc(Br)cc1)Nc1cccc(Cl)c1 | 3.6 °C
Cc1cccc(-n2ncc3c(O)nc(-n4nc(C)cc4NC(=O)c4cc5ccccc5o4)nc32)c1 | 12.7 °C
COc1ccc2c(c1)OC(O)(C(F)(F)C(F)(F)F)CC2=O (centres undefined) | 7.5 °C
CCN(CC)CCCNc1nc(-c2ccc(Cl)cc2)nc2ccccc12 | 4.1 °C
CCOC(=O)c1cnc2ccc(Cl)cc2c1NCCCN(C)C | 3.1 °C
Cc1sc2ncnc(Sc3nc4ccccc4[nH]3)c2c1C | 2.1 °C
FC(F)(F)c1cccc(Nc2nc3ccccc3nc2Nc2cccc(C(F)(F)F)c2)c1 | 2.5 °C
